Tests used:
IRAK4 = IRAK4 (Homo sapiens (Human), UniProt Q9NWZ3); assay: IRAK4 Inhibition Assay; type: biochemical; details: ATP 500 μM; IRAK4 0.6 nM; 60 min at room temperature
Procedure: The assays were performed in U-bottom 384-well plates. The final assay volume was 30 μL prepared from 15 μL additions of enzyme and substrates (fluoresceinated peptide and ATP) and test compounds in assay buffer (20 mM HEPES pH 7.2, 10 mM MgCl2, 0.015% Brij 35 and 4 mM DTT). The reaction was initiated by the combination of IRAK4 with substrates and test compounds. The reaction mixture was incubated at room temperature for 60 min. and terminated by adding 45 μL of 35 mM EDTA to each sample. The reaction mixture was analyzed on the Caliper LABCHIP® 3000 (Caliper, Hopkinton, Mass.) by electrophoretic separation of the fluorescent substrate and phosphorylated product. Inhibition data were calculated by comparison to no enzyme control reactions for 100% inhibition and vehicle-only reactions for 0% inhibition. The final concentrations of reagents in the assays are ATP, 500 μM; FL-IPTSPITTTYFFFKKK peptide 1.5 μM; IRAK4, 0.6 nM; and DMSO, 1.6%.

[1] = Caco-2 Permeability Assay; type: in vitro ADME; details: human, 3 μM compound, 2 hours at 37° C., direction not given
Procedure: Caco-2 Permeability Assay
Thirteen to 27 days prior to assay, Caco-2 cells were seeded onto collagen-coated polycarbonate filter membranes in 24-well transwell plates at a density of 1.45×10^5 cells/cm^2, approximately 4.8×10^4 cells per well. The cells were grown in a culture medium consisting of DMEM supplemented with 10% fetal bovine serum, 10 mM HEPES, 1% nonessential amino acids, 2 mM L-glutamine, 100 U/mL penicillin-G, and 100 μg/mL streptomycin. The culture medium was replaced every 3 days and the cells were maintained at 37° C. in a 95% relative humidity and 5% CO2 atmosphere. The cells were evaluated for tight junction formation just prior to assay. The test compound was solubilized to 10 mM in 100% DMSO and diluted to 3 μM in assay buffer. Permeability studies were initiated by adding 200 μL assay buffer plus/minus compound to the apical transwell compartment and 600 μL assay buffer plus/minus compound to the basolateral compartment of the 24-well transwell low-binding cluster plate. For apical-to-basolateral (A to B) permeability (absorptive direction), buffer containing compound was placed in the apical compartment (donorwells), while buffer alone was placed in the corresponding basolateral compartments (receiverwells). For basolateral-to-apical (B to A) permeability (secretive direction), buffer containing compound was placed in the basolateral compartment (donor wells), while buffer alone was placed in the corresponding apical compartments (receiver wells). Transwells were then incubated for 2 hours at 37° C. in a 95% relative humidity and 5% CO2 atmosphere with gentle agitation. Following incubation, 100 μL was removed from each apical and basolateral compartment and transferred to 96-well low binding plates that had been previously loaded with 100 μL/well of acetonitrile containing 250 nM propranolol, 250 nM diclofenac, and 500 nM tolbutamide as internal standards. The samples were subsequently analyzed by LC-MS/MS to determine concentrations of compound.

[2] = test system: IL-6 levels in human whole blood stimulated with a TLR2 agonist; assay: IRAK4 Whole Blood Assay (TLR2 agonist lipoteichoic acid-stimulated IL-6); type: cell-based; details: 10 μg/mL lipoteichoic acid, 5 hours, IL-6 readout
Procedure: Human whole blood containing the anti-coagulant ACD-A was plated in 384-well plate (25 μL/well) and incubated with compounds for 60 minutes at 37° C. in a 5% CO2 incubator. The blood was stimulated with a TLR2 agonist, 10 μg/mL final concentration of lipoteichoic acid (Invivogen, San Diego, Calif.) in 25 μL RPMI (Gibco) for 5 hours in a 5% CO2 incubator. At the end of the incubation, plates were centrifuged at 2300 rpm for 5 minutes. Supernatants were harvested and analyzed for IL-6 levels by Flow Cytometry beads assay (BD Biosciences, San Jose, Calif.).

Chain of IRAK4 (Q9NWZ3 whole entry): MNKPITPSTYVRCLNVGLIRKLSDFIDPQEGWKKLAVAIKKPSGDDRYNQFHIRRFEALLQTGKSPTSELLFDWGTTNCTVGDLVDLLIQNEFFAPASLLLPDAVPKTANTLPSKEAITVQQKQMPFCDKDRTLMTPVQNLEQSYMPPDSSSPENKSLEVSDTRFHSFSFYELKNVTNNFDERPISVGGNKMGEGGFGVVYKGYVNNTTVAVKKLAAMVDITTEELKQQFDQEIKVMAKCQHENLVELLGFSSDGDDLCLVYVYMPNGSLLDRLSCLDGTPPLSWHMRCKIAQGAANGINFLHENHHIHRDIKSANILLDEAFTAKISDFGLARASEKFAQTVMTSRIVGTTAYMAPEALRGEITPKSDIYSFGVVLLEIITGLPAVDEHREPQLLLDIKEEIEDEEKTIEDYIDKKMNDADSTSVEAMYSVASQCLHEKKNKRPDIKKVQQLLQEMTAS

Compound: COc1nc2c(OC[C@H]3NC(=O)[C@@H](F)[C@H]3C)csc2cc1C(N)=O [Example 28, 3-(((2S,3S,4S)-4-fluoro-3-methyl-5-oxopyrrolidin-2-yl)methoxy)-5-methoxythieno[3,2-b]pyridine-6-carboxamide]
- IC50 (IRAK4): 13.3 nM
- Papp at 2 h, 3 µM [1]: 5.8 ×10⁻⁶ cm/s
- EC50 [2]: 736 nM
